Data taken from PubChem BioAssay (NCI).
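Compound exposure: 48 hours, 5 concentrations, 96-well plates. GI50 is the concentration that inhibits growth by half. Definition used: TGI = concentration required for complete inhibition of growth.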

Legend:
Assay in all cases: NCI tumour cell line growth inhibition, 48 h
MDA-MB-435 = system: MDA-MB-435
OVCAR-4 ovarian = system: OVCAR-4 ovarian
T-47D breast = system: T-47D breast
LOX IMVI melanoma = system: LOX IMVI melanoma
SK-MEL-5 melanoma = system: SK-MEL-5 melanoma
NCI-H460 lung = system: NCI-H460 lung
RPMI-8226 leukemia = system: RPMI-8226 leukemia
COLO 205 colon = system: COLO 205 colon
U251 CNS = system: U251 CNS
HCC-2998 colon = system: HCC-2998 colon

| Structure (SMILES) | GI50 (MDA-MB-435) [nM] | TGI (MDA-MB-435) [µM] | GI50 (OVCAR-4 ovarian) [nM] | TGI (OVCAR-4 ovarian) [µM] | GI50 (T-47D breast) [nM] | TGI (T-47D breast) [µM] | GI50 (LOX IMVI melanoma) [nM] | TGI (LOX IMVI melanoma) [µM] | GI50 (SK-MEL-5 melanoma) [nM] | TGI (SK-MEL-5 melanoma) [µM] | GI50 (NCI-H460 lung) [nM] | TGI (NCI-H460 lung) [µM] | GI50 (RPMI-8226 leukemia) [nM] | TGI (RPMI-8226 leukemia) [µM] | GI50 (COLO 205 colon) [nM] | TGI (COLO 205 colon) [µM] | GI50 (U251 CNS) [nM] | TGI (U251 CNS) [µM] | GI50 (HCC-2998 colon) [nM] | TGI (HCC-2998 colon) [µM] |
| --- | --- | --- | --- | --- | --- | --- | --- | --- | --- | --- | --- | --- | --- | --- | --- | --- | --- | --- | --- | --- |
| c1ccc(Nc2nc(-c3ccccn3)cs2)nc1 | 689 | > 53.5 | 593 | > 100 | 698 | > 100 | 255 | 6.67 | 355 | 6.17 | 290 | 2.61 | 548 | 76.2 | 411 | 17.5 | 332 | > 43.2 | 516 | 24.7 |
| O=c1c2cccc(F)c2sc2c(N3CCNCC3)nc3ccccc3c12 | 1740 | 3.2 | 1640 | 3.08 | 1670 | 3.59 | 1420 | 2.81 | 1690 | 3.08 | 1020 | 2.34 | 1690 | 3.73 | 1430 | 3.17 | 1390 | 2.96 | 1480 | 3.13 |
| Cc1cccc2nc3cccc(C(=O)NCCNCCNCCNC(=O)c4cccc5nc6cccc(C)c6nc45)c3nc12 | < 10 | 1.41 | 168 | 5.09 | < 12.3 | 8.67 | < 10 | 0.53 | < 13.1 | 0.851 | < 10 | 0.19 | < 10 | 0.769 | < 10 | 0.7 | < 10 | 1.04 | 41.6 | 0.837 |
| CCCCCCC/C=C/[C@H]1O[C@]2(O)C(=O)C=C3C[C@@H](O[C@@H]4O[C@H](CO)[C@@H](O)C(O)[C@@H]4O)C[C@@H]3[C@H]2C=C1C (stereo not given in full) | 1210 | 5.69 | 2750 | 7.83 | 919 | 5.34 | 677 | 1.61 | 4310 | 8.53 | 6610 | 24.3 | 711 | 1.98 | 5560 | 11.8 | 1100 | 4.49 | 4930 | 9.82 |
| O=C(c1ccco1)c1c(C(F)(F)F)nc2ccc(C(F)(F)F)cc2[n+]1[O-] | > 81600 | > 100 | 24100 | 68.6 | 36300 | > 87.5 | 47800 | > 100 | 31400 | > 67.1 | > 63200 | > 100 | > 100000 | > 100 | > 100000 | > 100 | 25900 | 61.5 | 57600 | > 100 |
| COC1=C(Br)C(O)C2(C=C1Br)CC(C(=O)NCCCCNC(=O)C1=NOC3(C=C(Br)C(OC)=C(Br)C3O)C1)=NO2 (stereo not given) | – | 49.8 | – | > 100 | – | 62.9 | – | 35.1 | – | 36.6 | – | > 100 | – | 50.5 | – | 30.9 | – | > 100 | – | > 100 |
| Clc1cc2c(nn1)Nc1ccccc1S2 | > 100000 | > 100 | > 100000 | > 100 | > 100000 | > 100 | > 100000 | > 100 | > 100000 | > 100 | > 100000 | > 100 | > 100000 | > 100 | > 100000 | > 100 | > 100000 | > 100 | > 100000 | > 100 |
| C=C1CC[C@@H]2[C@](C)(COC(C)=O)[C@H](OC(C)=O)CC[C@@]2(C)[C@@H]1CC(Nc1ccc(S(=O)(=O)Nc2cc(C)on2)cc1)C1=CCOC1=O (stereo not given in full) | 1740 | 4.37 | 2910 | 10.5 | 2800 | 7.37 | 1180 | 2.54 | 2110 | 4.65 | 2350 | 5.7 | 1540 | 5.43 | 1970 | 4.34 | 1890 | 3.4 | 2140 | 4.05 |
| COc1cc2oc(-c3ccc(O)cc3O)c(CC=C(C)C)c(=O)c2c(O)c1/C=C/C(C)C | – | 4.49 | – | 8.44 | – | 23.4 | – | 3.32 | – | 3.06 | – | 14.5 | – | 8.73 | – | 10.3 | – | 6.12 | – | 4.6 |
| NC(=S)N/N=C/c1ccc(N)cn1 | – | > 10 | – | > 10 | – | > 10 | – | > 10 | – | > 6.95 | – | > 10 | – | > 10 | – | 8.03 | – | > 10 | – | > 10 |
| CCCCCc1cc[n+](CC(=O)c2ccc([N+](=O)[O-])cc2)cc1 | 3700 | 14.6 | 2530 | 13.1 | 6020 | 28.2 | 8150 | 22.1 | 1950 | 4.56 | 3090 | 11.6 | 3180 | 17 | 1620 | 2.97 | 4440 | 28.2 | 4940 | 17.6 |
